Experimental data reported in PMC4251666 (ACS chemical biology, 2012).

Test system: cytosolic cysteine proteases
Experiment: Calpain activity assay in isolated renal cytosol
Assay type: biochemical, New Zealand White rabbits
Settings: 10 μM, 50 μM SLLVY-AMC

## CCCC[C@@H](C=O)NC(=O)[C@H](CC(C)C)NC(=O)OCc1ccccc1 [Calpeptin]
  inhibition of activity in isolated cytosol: ~ 50%
